This assay has as its system Mv1Lu mink lung epithelial cells. The assay can be described thus: 6144 well BrdU cytoblot. It is filed as cell-based. The following applies: approximately 6000 nanowells. The procedure:
FIG. 4. BrdU incorporation is detected in 6144 well plates with a cytoblot. (a) The actual size of the wells of a 6144 well plate (nanowells; You et al. Chem. Biol. 4:969-975. 1997) is shown. (b) 25× magnification of the blot shown in (a). The indicated number of cells (Mv1Lu) were seeded in […] volumes in duplicate in 1% mink medium with or without 10 μM BrdU or 400 pM TGF-β, as indicated. The cells were cultured for 24 hours at 37° C. with 5% CO2 and then a 6144 well cytoblot was performed (see protocols). (c) Two separate nanowell plates (You et al. Chem. Biol. 4:969-975. 1997) were seeded with 20,000 Mv1Lu cells/mL in 1% mink medium with or without 500 pM TGF-13. After 26 hours at 37° C. with 5% CO2 BrdU was added to a final concentration of 10 μM. The cells were incubated for an additional 18 hours at 37° C. with 5% CO2 and then a 6144 well cytoblot was performed (see protocols).
The anti-BrdU cytoblot assay was then tested for its ability to detect the inhibition of BrdU uptake in a plate containing approximately 6000 arrayed “nanowells” (You et al. Chem Biol 4:969-975. 1997. Incorporated herein by reference). […] The following protocol provides experimental detail.
The reagents to be tested were prepared in 1536 well plates with one or more test compound per well. […]

For “TGF-β: anti-mitogen transforming growth factor β, multifunctional polypeptide signaling factor”, the BrdU incorporation entry is “prevented BrdU incorporation”.

The values above are taken from patent US20080311589A1, “METHOD OF HIGH-THROUGHPUT SCREENING OF MOLECULES AND COMPOUNDS FOR THEIR EFFECTS ON BIOLOGICAL AND CHEMICAL PROCESSES” (priority 1999, published 2008).
